Here are results for five compounds from US20100298302A1, “NOVEL PROTEIN KINASE MODULATORS” (priority 2009, published 2010).

Where two headings read alike, the source gives them in different places.

Test [1] has as its system K-562 human chronic myelogenous leukemia (CML) cells. Description: Alamar Blue cell proliferation assay, K-562. The format is cell-based. An outline of the steps: (§1)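 Cells were seeded at 4,000–5,000/well and exposed to compound dilutions for 4 days at 37 °C, 5% CO2, humidified. Alamar Blue was added for 4 h, with fluorescence read at 544 nm excitation and 590 nm emission. Controls were untreated cells and medium-only wells.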
(Resazurin is reduced to fluorescent resorufin, in cell work by metabolically active cells.)

Test [2] deals with MiaPaca human pancreatic carcinoma cells. The experiment in a line: Alamar Blue cell proliferation assay, MiaPaCa. The settings on record: MIA PaCa-2. The test is classed as cell-based. The method, then:
(§2) A representative cell-proliferation assay protocol using Alamar Blue dye (stored at 4° C., use 20 ul per well) is described hereafter.
(§3) a. Split and trypsinize cells.
(§4) b. Count cells using hemocytometer.
(§5) c. Plate 4,000-5,000 cells per well in 100 μl of medium and seed into a 96-well plate according to the following plate layout. Add cell culture medium only to wells B10 to B12. Wells B1 to B9 have cells but no compound added.
(§6) d. Add 100 μl of 2× drug dilution to each well in a concentration shown in the plate layout above. At the same time, add 100 μl of media into the control wells (wells B10 to B12). Total volume is 200 μl/well.
(§7) e. Incubate four (4) days at 37° C., 5% CO2 in a humidified incubator.
(§8) f. Add 20 μl Alamar Blue reagent to each well.
(§9) g. Incubate for four (4) hours at 37° C., 5% CO2 in a humidified incubator.
(§10) h. Record fluorescence at an excitation wavelength of 544 nm and emission wavelength of 590 nm using a microplate reader.
(§11) In the assays, cells are cultured with a test compound for approximately four days, the dye is then added to the cells and fluorescence of […] dye is detected after approximately four hours. Different types of cells can be utilized in the assays (e.g., HCT-116 human colorectal carcinoma cells, PC-3 human prostatic cancer cells, MDA-MB231 human breast cancer cells, K-562 human chronic myelogenous leukemia (CML) cells, MiaPaca human pancreatic carcinoma cells, MV-4 human acute myeloid leukemia cells, and BxPC3 human pancreatic adenocarcinoma cells).

Test [3] relates to PC-3 human prostatic cancer cells. Description: Alamar Blue cell proliferation assay, PC3. The format is cell-based. As to the method: as §2, §3, §4, §5, §6, §7, §8, §9, §10, §11
The test system of a further test is MV-4-11. The experiment in a line: Alamar Blue cell proliferation assay, MV-4-11. The conditions noted are these: Homo sapiens, MV4-11. The format is cell-based. Put shortly: as §1
The target in another test is recombinant PIM-1 (Homo sapiens, UniProt P11309). Description: PIM-1 kinase assay. The settings on record: for inhibition at 0.5 µM: 500 nM compound, read-out: PIM1: % inh 500 nM. The test is classed as biochemical. An outline of the steps: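 Recombinant PIM-1 (1 ng) with 100 uM KKRNRTLTK peptide, 15 uM ATP plus [γ-33P]ATP, 10 mM Mg acetate, MOPS pH 7.0, 4% DMSO. Reaction 40 min at 23° C, quenched with phosphoric acid; labeled peptide captured on phosphocellulose filters and counted by scintillation.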

Test [4] deals with MDA-MB231 human breast cancer cells. Description: Alamar Blue cell proliferation assay, MDA-MB231. The settings on record: MDA-MB-231, read-out: MDAMB231 IC50. The test is classed as cell-based. As to the method:
as §2, §3, §4, §5, §6, §7, §8, §9, §10, §11

The test system of test [5] is leukemic cells from AML patients. The conditions noted are these: cited from earlier work.
In a further test the test system is MV-4-11 (AML) xenograft. The settings on record: MV-4-11 (AML) xenograft model; cited from earlier work.
Another test concerns MOLM-13 (AML) xenograft. The conditions noted are these: MOLM-13 (AML) xenograft model; cited from earlier work.
The subject of the next test is SUM-149PT. Description: Alamar Blue cell proliferation assay, SUM-149PT. The test is classed as cell-based. The conditions noted are these: Homo sapiens, SUM149PT. As to the method:
as §2, §3, §4, §5, §6, §7, §8, §9, §10, §11

In a further test the test system is MDA-MB45. The experiment in a line: Alamar Blue cell proliferation assay, MDA-MB45. The test is classed as cell-based. The method, then:
as §2, §3, §4, §5, §6, §7, §8, §9, §10, §11

Test [6] relates to BxPC3 human pancreatic adenocarcinoma cells. Description: Alamar Blue cell proliferation assay, BxPC3. The test is classed as cell-based. The conditions noted are these: BXPC-3. As to the method: as §2, §3, §4, §5, §6, §7, §8, §9, §10, §11
The target of the next test is recombinant human PIM2 (Homo sapiens, UniProt Q9P1W9). Description: PIM-2 kinase assay. The test is classed as biochemical. Put shortly:
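Radiometric filter-binding assay: 4 ng recombinant human PIM2 in MOPS pH 7.0 buffer with test compound in DMSO, started with 75 uM ATP stock (containing [γ-33P]ATP and MgCl2) and 1 mM RSRSSYPAGT peptide stock. Reaction run 10 min at 30 °C, stopped with phosphoric acid, and phosphopeptide captured on phosphocellulose and counted by scintillation.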

In the next test the target is T1, FLT3 (Homo sapiens, UniProt P36888).
T1 sequence (P36888 27-993): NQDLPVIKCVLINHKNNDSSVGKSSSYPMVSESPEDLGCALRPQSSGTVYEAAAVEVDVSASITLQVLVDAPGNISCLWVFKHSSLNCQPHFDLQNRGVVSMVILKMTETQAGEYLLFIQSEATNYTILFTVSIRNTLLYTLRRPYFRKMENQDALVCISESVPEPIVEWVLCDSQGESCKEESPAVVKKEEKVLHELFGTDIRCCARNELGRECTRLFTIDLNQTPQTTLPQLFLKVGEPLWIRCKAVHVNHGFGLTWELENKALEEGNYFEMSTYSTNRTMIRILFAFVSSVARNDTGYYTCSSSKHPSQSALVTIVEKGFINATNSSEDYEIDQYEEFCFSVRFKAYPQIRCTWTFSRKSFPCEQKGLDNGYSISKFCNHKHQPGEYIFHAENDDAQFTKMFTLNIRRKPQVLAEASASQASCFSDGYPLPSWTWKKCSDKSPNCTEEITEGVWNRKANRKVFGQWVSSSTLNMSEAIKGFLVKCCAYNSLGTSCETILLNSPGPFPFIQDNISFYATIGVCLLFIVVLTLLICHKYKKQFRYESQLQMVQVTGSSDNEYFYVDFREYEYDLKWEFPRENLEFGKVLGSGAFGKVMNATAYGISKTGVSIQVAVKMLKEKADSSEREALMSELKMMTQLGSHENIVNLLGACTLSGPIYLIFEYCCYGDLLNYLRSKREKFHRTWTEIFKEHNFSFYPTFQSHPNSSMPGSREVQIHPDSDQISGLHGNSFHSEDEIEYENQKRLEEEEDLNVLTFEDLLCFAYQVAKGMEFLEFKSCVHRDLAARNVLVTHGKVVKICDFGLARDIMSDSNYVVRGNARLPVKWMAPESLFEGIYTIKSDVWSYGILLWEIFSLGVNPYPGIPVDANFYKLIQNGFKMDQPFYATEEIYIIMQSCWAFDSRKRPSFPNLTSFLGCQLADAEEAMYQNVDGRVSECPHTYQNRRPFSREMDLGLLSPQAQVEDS
The experiment in a line: FLT3 inhibition. The format is biochemical.

The target of the next test is T2, recombinant human CK2 (Homo sapiens, UniProt P68400).
T2 construct: purchased Upstate
Description: cell-free CK2 assay. The test is classed as biochemical. An outline of the steps:
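Recombinant human CK2 (25 ng) phosphorylated peptide RRRDDDSDDD (1 mM stock) in MOPS pH 7.2 buffer with vanadate and EGTA, started with 75 micromolar ATP stock spiked with [γ-33P]ATP, 10 minutes at 30 degrees C. Phosphoric acid-quenched peptide was captured on phosphocellulose and counted by scintillation.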

Where [7] appears, read: 15 μM ATP, read-out: PIM1: IC50 (15 μM ATP).

Chain of recombinant PIM-1 (P11309 whole entry): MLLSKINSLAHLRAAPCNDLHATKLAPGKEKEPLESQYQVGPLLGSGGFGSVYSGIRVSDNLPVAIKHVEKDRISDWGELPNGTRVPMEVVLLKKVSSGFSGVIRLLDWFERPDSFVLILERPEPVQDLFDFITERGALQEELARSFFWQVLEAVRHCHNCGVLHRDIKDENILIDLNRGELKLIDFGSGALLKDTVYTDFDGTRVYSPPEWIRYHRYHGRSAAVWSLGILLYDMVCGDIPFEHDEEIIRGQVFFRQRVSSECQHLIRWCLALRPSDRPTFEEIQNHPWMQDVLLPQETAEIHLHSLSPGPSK
T2 sequence (P68400 whole entry): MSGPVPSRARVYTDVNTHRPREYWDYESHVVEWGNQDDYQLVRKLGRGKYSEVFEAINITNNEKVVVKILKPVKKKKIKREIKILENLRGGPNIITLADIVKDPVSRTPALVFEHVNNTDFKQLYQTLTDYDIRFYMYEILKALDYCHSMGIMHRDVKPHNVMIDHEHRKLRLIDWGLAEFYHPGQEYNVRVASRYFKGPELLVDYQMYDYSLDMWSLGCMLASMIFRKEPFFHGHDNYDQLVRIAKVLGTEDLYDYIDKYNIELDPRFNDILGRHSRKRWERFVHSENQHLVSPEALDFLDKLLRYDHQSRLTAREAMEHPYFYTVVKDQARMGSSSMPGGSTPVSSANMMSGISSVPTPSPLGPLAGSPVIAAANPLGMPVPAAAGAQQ
T2 sequence (P67870 whole entry partner): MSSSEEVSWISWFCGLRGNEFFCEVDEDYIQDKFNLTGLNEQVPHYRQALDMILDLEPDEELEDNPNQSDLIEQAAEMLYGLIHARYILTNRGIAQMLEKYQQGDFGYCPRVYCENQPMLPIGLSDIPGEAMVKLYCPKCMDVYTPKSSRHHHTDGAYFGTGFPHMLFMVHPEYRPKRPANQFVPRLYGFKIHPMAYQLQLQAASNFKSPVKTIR
Chain of recombinant human PIM2 (Q9P1W9 whole entry): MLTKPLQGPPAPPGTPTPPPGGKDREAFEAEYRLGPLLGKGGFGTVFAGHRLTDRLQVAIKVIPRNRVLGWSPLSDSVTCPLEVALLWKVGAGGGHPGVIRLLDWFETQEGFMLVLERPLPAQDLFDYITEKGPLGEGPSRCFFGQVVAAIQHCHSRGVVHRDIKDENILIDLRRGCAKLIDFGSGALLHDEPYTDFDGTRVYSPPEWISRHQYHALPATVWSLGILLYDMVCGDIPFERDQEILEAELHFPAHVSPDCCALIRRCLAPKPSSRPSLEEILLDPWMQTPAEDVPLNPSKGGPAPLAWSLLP

Consider `O=C(O)c1ccc2c(c1)nc(NCC(F)(F)F)c1cccn12`, for which the IC50 in [1] (K562, Table 4) is above 10 µM; in test [2], above 10 µM; in [3] it was above 30 µM; in the test with MV-4-11 (Table 4) it was above 10 µM; on recombinant PIM-1 (setting [7]) it was 0.419 µM; in [4], above 10 µM. In addition, the inhibition at 0.5 µM on recombinant PIM-1 is 52.9%.
With `CN(C)C[C@@H]1CCn2cc(c3ccccc32)C2=C(C(=O)NC2=O)c2cn(c3ccccc23)CCO1` [Ly5333′531], the “effect on cell growth and cell death” value in [5] is “suppressed cell growth and induced cell death”.
Take `CN1CCC(CNc2ccc3ncc(-c4cccc(OC(F)(F)F)c4)n3n2)CC1` [SGI-1776]: the tumor regression result with MV-4-11 (AML) xenograft and with MOLM-13 (AML) xenograft was “significant tumor regression” in each case.
In the case of `Clc1ccccc1Nc1nc2c(-c3nnc[nH]3)cccc2n2cccc12`, the IC50 with SUM-149PT was below 5 µM; in [1] (K562, Table 5), above 10 µM; in the test on MDA-MB45, below 5 µM; in the test with MV-4-11 (Table 5), below 5 µM; on recombinant PIM-1 (Table 5, read-out: PIM1 IC50), below 0.1 µM; in [6] it was below 10 µM. The IC50 was below 0.1 µM on recombinant human PIM2, above 10 µM on FLT3 and below 0.1 µM at recombinant human CK2.
Regarding `O=C(O)c1ccc2c(c1)nc(Nc1ccc(F)c(Cl)c1)c1cccn12`, the half-maximal inhibitory concentration (IC50) in [1] (K562, Table 4) was 10.7 µM; in test [2] it was above 10 µM; in test [3] it was above 10 µM; in the test with MV-4-11 (Table 4), 6.91 µM; at recombinant PIM-1 (setting [7]), 0.071 µM; in test [4] it was 12 µM. Moreover, the inhibition at 0.5 µM on recombinant PIM-1 was 91.4%.

One may read the IC50 as the point on the concentration scale where inhibition reaches its midpoint.
